The source of these data is patent publication US7192932B1, “Use of immunomodulating agents” (Lauras AS, priority 1997, dated 2007).

In assay [1] the test system is peripheral blood CD3+ T cells. Nature of the assay: TCR/CD3 stimulated proliferation of liposome-transfected CD3+ T cells treated with 8-CPT-cAMP. As to conditions: for IC50: FIG. 10. Type of assay: cell-based, human. As for the experimental part:
FIG. 8. Reversal of cAMP-mediated inhibition of TUR/CD3 stimulated T cell proliferation by the use of ribozyme to the RIα subunit of protein kinase A type I. TCR/CD3 stimulated proliferation of peripheral blood CD3+ T cells from normal healthy blood donor following treatment with liposomes alone (mock) or with liposomes and RIα ribozyme (RIα rbz, 10 μM) in the absence (solid bars) and presence (open bars) of 8-CPT-cAMP (12,5 μM).
FIG. 9. Reversal of cAMP-mediated inhibition of TCR/CD3 stimulated T cell proliferation by the use of competitor peptide to compete the TCR/CD3 associated anchoring of RIα subunit of protein kinase A type I in T cells. TCR/CD3 stimulated proliferation of peripheral blood CD3+ T cells from normal healthy blood donor following treatment with liposomes alone (mock) or with increasing concentrations (25 to 100 μM) of a competitor peptide (Ht-31) that competes anchoring, to PKA type II or a control peptide (Ht31-P).
FIG. 10. TCR/CD3 stimulated proliferation of peripheral blood CD3+ T cells in the presence of increasing, concentrations of 8-CPT-cAMP. Normalized levels of proliferation of T cells mock transfected with liposomes only (solid circles, continuous line) or incubated with liposomes and Ht31 peptide (35 μM) to compete anchoring of protein kinase A type I (open circles, dotted line) was assessed as [^3H]-thymidine incorporation after 48 h during which [^3H]-thymidine was added for the last 18 h. Note: right shift of the IC50 (arrow) from 1,8 to 4,8 μM in the presence of […].
When transfected as synthetic RNA ribozyme or as a synthetic RNA ribozyme stabilized by incorporation of 2-deoxycytosine and 2-deoxy-uracil analogs into peripheral blood CD3+ T cells, the ribozyme reduced levels of RIα protein to approximately 20% of control levels by removing the RIα mRNA. By this strategy, the majority of protein kinase A type 1 was removed from the T cells. We then assessed the immune responsiveness of CD3+ T cells transfected with ribozyme compared to control (mock) transfected T cells measured as T cell proliferation after activation of T cells by stimulation of the T cell receptor/CD3 complex (TCR/CD3). In order to simulate a T cell dysfunction as that of HIV infection, with elevated levels of cAMP and increased activation of protein kinase A type 1, we treated normal T cells with low dose (12.5 around IC50) of the cAMP analog 8-(4-chlorophenyl)-thio-cAMPS (8-CPT-cAMP). […] For in vivo use pretreatment of ribozymes to allow cellular uptake or introduction into cells as minigenes will be necessary.
We incubated blood CD3+ T cells with increasing concentrations of Ht31 (SEQ. ID. NO 2) peptide. In order to facilitate uptake, cells were treated with liposomes in the presence or absence of-peptide. The optimal concentrations of DOTAP liposomes and anti-CD3 antibody were titrated carefully in order to maintain the membrane stability and normal TCR/CD3-dependent activation of the T cells. Cells were incubated for 20 hours with DOTAP/peptide and incubations continued in the absence (solid bars) or presence of 8-CPT-cAMP (6.25 μM, hatched bars) and activated to proliferation by stimulation of TCR/CD3 T cell immune responsiveness was assessed as [3H]thymidine incorporation.
Next, the effect of the competitor peptide (Ht-31, 35 μM) on T cell proliferation was examined in the presence of increasing concentrations of 8-CPT-cAMP and compared to mock transfected cells treated with the same concentrations of 8-CPT-cAMP (FIG. 10). As shown previously for normal peripheral blood T cells. […] Compared to the left-shifted curves observed with T cells from HIV-infected patients or patients with CIV due to elevated levels of endogenous cAMP activating PKA type 1, the right-shift observed here would be expected to normalize the situation in patients.

For assay [2], the system named is peripheral blood CD3+ T cells. Kind of assay: TCR/CD3 (anti-CD3) stimulated T cell proliferation, [3H]-thymidine incorporation. Type of assay: cell-based, human. As for the experimental part:
(§1) Human peripheral blood CD3+ T cells were purified by negative selection from 50 ml of heparin-treated blood from normal healthy donors (Ullevaal University Hospital Blood Center, Oslo. Norway) or patients. Briefly, peripheral blood mononuclear cells were isolated by density gradient (Lymphoprep, NycoMed, Oslo, Norway) centrifugation followed by negative selection using monodisperse magnetic beads directly coated with antibodies to CD14 and CD19 and rat anti-mouse IgG beads coated with antibodies to CD56 and a magnet. Magnetic beads were all from Dynal (Oslo, Norway, cat. no. 111.12, 111.04, and 110.11. respectively) whereas anti-CD56 antibody was from Pharmingen (San Diego, Calif., cat. no. 31660.d). All steps were performed at 4° C.
as §1, with “Peripheral blood” for “Human peripheral blood”, “Center, Oslo,” for “Center, Oslo.”, “selection using,” for “selection using”, “and 110.11,” for “and 110.11.”, “Calif., eat.” for “Calif., cat.”
Proliferation assays were performed by incubation of 0.75×10^6 CM+ T cells/ml in a 100 μl volume in that-bottom 96-well microtiter plates. Activation was achieved by subsequent addition of monodisperse magnetic beads coated with sheep anti-mouse IgG (Dynal. cat. no. 110.02) at a cell:bead ratio of 1:1 followed by addition of antiCD3 (clone SpvT3b) at a final dilution of 1:125,000 for the experiments shown. The optimal concentration of antibody was titrated carefully in the initial setup and parallel experiments at several different dilutions of antibody was always performed. Proliferation was analyzed by incubating, cells for 72 hours during which [^3H]thymidine was included for the last 16 hours. Cells were washed and harvested onto filters using a Scatron harvester (Suffolk, UK) and subsequently analyzed by β-scintillation counting. cAMP analogs, when used, were added 30 min prior to activation by addition of […] antibodies. 8-CPT-cAMP was from Sigorna (St. Louis, Mo.) and Sp- and Rp-8-Br-cAMPS were from BioLog Life Science Company (Bremen, Germany) and were all dissolved to concentrations of 4 to 10 mM in PBS and concentrations calculated using the extinction coefficients given by the manufacturer.

Where “and” joins values, the source holds several entries; their conditions need not be identical. Identical values can stand only once. Marks after values point to notes of the source that are not given here.

Turning to `Nc1ncnc2c1nc(Sc1ccc(Cl)cc1)n2[C@@H]1O[C@@H]2COP(=O)(O)O[C@H]2[C@H]1O` [8-CPT-cAMP, 8-(4-chlorophenylthio)cAMP, reference compound], the “T cell proliferation in presence of cAMP analog” value in assay [1] (mock transfected normal T cells, 8-CPT-cAMP 12.5 μM, FIG. 8) is reported as “approximately 20 % of control”. The IC50 in assay [1] (normal T cells incubated with liposomes and Ht31 peptide (35 μM), read-out: apparent IC50, inhibition of TCR/CD3 stimulated proliferation) was 4800 nM; in assay [1] (normal T cells mock transfected with liposomes only, read-out: IC50, inhibition of TCR/CD3 stimulated proliferation), ~1800 nM and 1800 nM; in assay [2] (T cells from HIV+ asymptomatic patients, n = 8, median (25 to 75% range), read-out: Inhibition of proliferation by 8-CPT-cAMP IC50), 2260 nM; in assay [2] (T cells from HIV+ symptomatic patients, n = 10, median (25 to 75% range), read-out: Inhibition of proliferation by 8-CPT-cAMP IC50), 1870 nM; in assay [2] (T cells from a healthy blood donor, FIG. 1B, read-out: IC50, inhibition of TCR/CD3 stimulated proliferation), 6110 nM; in assay [2] (T cells from a representative HIV-infected patient (#10 in Table 2a), FIG. 1B, read-out: IC50, inhibition of TCR/CD3 stimulated proliferation), 1780 nM. The IC50 in assay [2] (T cells from normal controls, n = 8, median (25 to 75% range), read-out: Inhibition of proliferation by 8-CPT-cAMP IC50) was 4590 nM; in assay [2] (T cells from patients on triple combination therapy, n = 9, median (25 to 75% range), read-out: Inhibition of proliferation by 8-CPT-cAMP IC50) it was 2590 nM; in assay [2] (T cells of individual CVI patients #1-#7, read-out: Inhibition of proliferation by 8-CPT-cAMP (IC50)), 3680 nM and 3360 nM and 3160 nM and 2660 nM and 2340 nM and 2980 nM and 2260 nM; in assay [2] (median in 7 CVI patients, read-out: Inhibition of proliferation by 8-CPT-cAMP (IC50)), 2980 nM; in assay [2] (median in 8 healthy controls, read-out: Inhibition of proliferation by 8-CPT-cAMP (IC50)), 4590 nM; in assay [2] (one healthy control, FIG. 4B, read-out: IC50, inhibition of anti-CD3 stimulated T lymphocyte proliferation), 4660 nM. For the same molecule, the IC50 in assay [2] (one representative CVI patient, FIG. 4B, read-out: IC50, inhibition of anti-CD3 stimulated T lymphocyte proliferation) came to 2260 nM. Also, the “Hill coefficient of cAMP-inhibition curve” value in assay [2] (T cells from HIV seropositive individuals, n=18) was 1.19 (1.13–1.40). In addition, the “Inhibition of proliferation by 8-CPT-cAMP Hill coefficient” value is 1.18(1.09–1.36)^b in assay [2] (T cells from HIV+ asymptomatic patients, n = 8, median (25 to 75% range)); 1.19(1.13–1.40)^o in assay [2] (T cells from HIV+ symptomatic patients, n = 10, median (25 to 75% range)); 1.59(1.40–1.81) in assay [2] (T cells from normal controls, n = 8, median (25 to 75% range)); 1.35(1.33–1.68) in assay [2] (T cells from patients on triple combination therapy, n = 9, median (25 to 75% range)). In addition, the “Inhibition of proliferation by 8-CPT-cAMP (−Hill coefficient)” value in assay [2] (T cells of individual CVI patients #1-#7) was 1.34 and 1.38 and 2.03 and 1.39 and 1.46 and 1.47 and 1.26; in assay [2] (median in 7 CVI patients), 1.39^§; in assay [2] (median in 8 healthy controls) it was 1.59.
